Values quoted from earlier work as cited in US20150209404A1, “CELLULAR BLOOD MARKERS FOR EARLY DIAGNOSIS OF ALS AND FOR ALS PROGRESSION” (YEDA RESEARCH AND DEVELOPMENT CO. LTD., priority 2010, published 2015).

Settings: ALS patients; Copaxone given daily; both drugs effective in treating MS

## glatiramer acetate [Copaxone]
  outcome of treatment in ALS: failed and were even detrimental
